Data on ten molecules can be found in US8957064B2, “Fused pyrimidines” (Bayer Intellectual Property GmbH, priority 2009, dated 2015).

The structures appear in SMILES notation. Bounds are passed on as bounds.

Assay [1] addresses His-tagged human recombinant kinase full-length Akt1 (Homo sapiens (Human), UniProt P31749). Description: Akt1 kinase assay (Akt1 TR-FRET assay, Biological Assay 1.0). Particulars: 10 μM ATP, 1 μM biotinylated peptide substrate, 60 min at 22° C. The class given is biochemical. The text has this: Biological Assay 1.0: Akt1 Kinase Assay
Akt1 inhibitory activity of compounds of the present invention may be quantified employing the Akt1 TR-FRET assay as described in the following paragraphs. His-tagged human recombinant kinase full-length Akt1 expressed in insect cells was purchased form Invitrogen (part number PV 3599). As substrate for the kinase reaction the biotinylated peptide biotin-Ahx-KKLNRTLSFAEPG (C-terminus in amide form) was used which can be purchased e.g. from the company Biosynthan GmbH (Berlin-Buch, Germany).
(§1) For the assay 50 nl of a 100 fold concentrated solution of the test compound in DMSO was pipetted into a black low volume 384 well microtiter plate (Greiner Bio-One, Frickenhausen, Germany), 2 μl of a solution of Akt1 in assay buffer [50 mM TRIS/HCl pH 7.5, 5 mM MgCl2, 1 mM dithiothreitol, 0.02% (v/v) Triton X-100 (Sigma)] were added and the mixture was incubated for 15 min at 22° C. to allow prebinding of the test compounds to the enzyme before the start of the kinase reaction. Then the kinase reaction was started by the addition of 3 μl of a solution of adenosine-tri-phosphate (ATP, 16.7 μM=>final conc. in the 5 μl assay volume is 10 μM) and substrate (1.67 μM=>final conc. in the 5 μl assay volume is 1 μM) in assay buffer and the resulting mixture was incubated for a reaction time of 60 min at 22° C. The concentration of Akt1 in the assay was adjusted depending of the activity of the enzyme lot and was chosen appropriate to have the assay in the linear range, typical enzyme concentrations were in the range of about 0.05 ng/μl (final conc. in the 5 μl assay volume).
(§2) The reaction was stopped by the addition of 5 μl of a solution of HTRF detection reagents (200 nM streptavidine-XL665 [Cisbio] and 1.5 nM anti-phosho-Serine antibody [Millipore, cat. #35-001] and 0.75 nM LANCE Eu-W 1024 labeled anti-mouse IgG antibody [Perkin Elmer]) in an aqueous EDTA-solution (100 mM EDTA, 0.1% (w/v) bovine serum albumin in 50 mM HEPES/NaOH pH 7.5).
(§3) The resulting mixture was incubated 1 h at 22° C. to allow the binding of the biotinylated phosphorylated peptide to the streptavidine-XL665 and the antibodies. Subsequently the amount of phosphorylated substrate was evaluated by measurement of the resonance energy transfer from the anti-mouse-IgG-Eu-Chelate to the streptavidine-XL665. Therefore, the fluorescence emissions at 620 nm and 665 nm after excitation at 350 nm was measured in a HTRF reader, e.g. a Rubystar (BMG Labtechnologies, Offenburg, Germany) or a Viewlux (Perkin-Elmer). The ratio of the emissions at 665 nm and at […] was taken as the measure for the amount of phosphorylated substrate. The data were normalised (enzyme reaction without inhibitor=0% inhibition, all other assay components but no enzyme=100% inhibition).
(In general: Time-resolved FRET reads energy transfer from a long-lived donor to a nearby acceptor.)

Assay [2] has as its target His-tagged human recombinant kinase full-length Akt2 activated by PDK1 (Homo sapiens (Human), UniProt P31751). Description: Akt2 kinase assay (Akt2 TR-FRET assay, Biological Assay 2.0). As to conditions: 10 μM ATP, 1 μM biotinylated peptide substrate, 60 min at 22° C. The class given is biochemical.
Text: Biological Assay 2.0: Akt2 Kinase Assay
Akt2 inhibitory activity of compounds of the present invention was quantified employing the Akt2 TR-FRET assay as described in the following paragraphs.
His-tagged human recombinant kinase full-length Akt2 expressed in insect cells and activated by PDK1 was purchased form Invitrogen (part number PV 3975). As substrate for the kinase reaction the biotinylated peptide biotin-Ahx-KKLNRTLSFAEPG (C-terminus in amide form) was used which can be purchased e.g. from the company Biosynthan GmbH (Berlin-Buch, Germany).
as §1, with “Akt2” for “Akt1”, “0.2” for “0.05”
as §2
as §3, with “TR-FRET” for “HTRF”

Sequence of His-tagged human recombinant kinase full-length Akt1 (P31749 whole entry): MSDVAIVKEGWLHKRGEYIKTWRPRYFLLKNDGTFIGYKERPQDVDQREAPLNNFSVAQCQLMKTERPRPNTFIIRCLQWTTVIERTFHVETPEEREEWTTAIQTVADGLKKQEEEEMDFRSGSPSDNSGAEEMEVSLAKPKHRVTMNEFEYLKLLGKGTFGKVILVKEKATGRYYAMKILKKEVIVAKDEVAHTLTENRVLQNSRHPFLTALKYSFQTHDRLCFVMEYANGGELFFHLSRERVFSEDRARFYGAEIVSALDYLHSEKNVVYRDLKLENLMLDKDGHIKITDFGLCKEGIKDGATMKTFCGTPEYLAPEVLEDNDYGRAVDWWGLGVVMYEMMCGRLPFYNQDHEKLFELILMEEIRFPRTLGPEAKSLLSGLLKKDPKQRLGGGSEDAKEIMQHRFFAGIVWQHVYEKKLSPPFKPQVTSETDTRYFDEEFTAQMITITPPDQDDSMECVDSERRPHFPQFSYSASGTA
Sequence of His-tagged human recombinant kinase full-length Akt2 activated by PDK1 (P31751 whole entry): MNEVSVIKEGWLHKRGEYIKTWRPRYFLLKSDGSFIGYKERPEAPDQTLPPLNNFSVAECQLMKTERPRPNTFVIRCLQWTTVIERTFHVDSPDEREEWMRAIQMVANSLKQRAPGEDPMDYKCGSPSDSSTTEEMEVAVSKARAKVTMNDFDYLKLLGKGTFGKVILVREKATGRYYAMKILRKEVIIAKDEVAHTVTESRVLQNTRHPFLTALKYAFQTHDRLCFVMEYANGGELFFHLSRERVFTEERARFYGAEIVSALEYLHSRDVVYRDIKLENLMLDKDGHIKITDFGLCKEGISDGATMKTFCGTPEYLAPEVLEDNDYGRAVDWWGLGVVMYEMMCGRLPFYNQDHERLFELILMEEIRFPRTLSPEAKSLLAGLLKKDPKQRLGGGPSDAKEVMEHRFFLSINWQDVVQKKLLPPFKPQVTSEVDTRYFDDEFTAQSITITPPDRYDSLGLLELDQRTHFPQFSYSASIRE

By IC50 is commonly meant the concentration at which inhibition is half-maximal. As to `Cc1cccc(-c2nc(C3CN(Cc4ccc(-c5nc6nc(C7CC7)nn6cc5-c5ccc(F)cc5)cc4)C3)n[nH]2)n1` [Example 39.0, 2-cyclopropyl-6-(4-fluorophenyl)-5-(4-{3-[5-(6-methyl-pyridine-2-yl)-1H-[1,2,4]triazole-3-yl]-azetidine-1-ylmethyl}-phenyl)-[1,2,4]triazolo[1,5-a]pyrimidine], the results for the IC50 in assay [1] and in assay [2] were 29 nM and 27 nM, respectively.

On to `Cc1cccc(-c2nc(C3CCN(Cc4ccc(-c5nc6nc(C)nn6cc5-c5ccc(F)cc5F)cc4)CC3)n[nH]2)n1` [Example 50.1, 6-(2,4-difluorophenyl)-2-methyl-5-(4-{4-[5-(6-methylpyridine-2-yl)-1H-[1,2,4]triazole-3-yl]-piperidine-1-ylmethyl}-phenyl)-[1,2,4]triazolo[1,5-a]pyrimidine], for which the IC50 was found to be 62 nM in assay [1] and 108 nM in assay [2].

With `OCc1cnn2cc(-c3c(F)cccc3F)c(-c3ccc(CN4CC(c5n[nH]c(-c6ccccn6)n5)C4)cc3)nc12` [Example 62.0, (6-(2,6-difluorophenyl)-5-{4-[3-[5-pyridine-2-yl-1H-[1,2,4]triazole-3-yl)-azetidine-1-ylmethyl]-phenyl}-pyrazolo[1,5-a]pyrimidin-3-yl)-methanol], the values for the IC50 in assay [1] and in assay [2] were 55 nM and 801 nM, respectively.

Turning to `COC(=O)c1cnn2cc(-c3c(F)cccc3F)c(-c3ccc(CN4CCC(c5n[nH]c(-c6ccccn6)n5)CC4)cc3)nc12` [Example 48.1, 6-(2,6-difluorophenyl)-5-(4-{4-[5-(pyridine-2-yl)-1H-[1,2,4]triazole-3-yl]-piperidine-1-ylmethyl}-phenyl)-pyrazolo[1,5-a]pyrimidine-3-carboxylic acid methyl ester], the figures for the IC50 in assay [1] and in assay [2] were 5 nM and 203 nM, respectively.

In the case of `Cc1nc2nc(-c3ccc(CN4CCC(c5nc6ccncc6[nH]5)CC4)cc3)c(-c3ccccc3)cn2n1` [Example 14.0, 5-{4-[4-(3H-imidazo[4,5-c]pyridin-2-yl)-piperidin-1-ylmethyl]-phenyl}-2-methyl-6-phenyl-[1,2,4]triazolo[1,5-a]pyrimidine], the IC50 in assay [1] worked out at 3000 nM; in assay [2], 5840 nM.

As to `FC(F)(F)c1ccc2nc(C3CCN(Cc4ccc(-c5nc6ccnn6cc5-c5ccccc5)cc4)CC3)[nH]c2c1` [Example 17.0, 6-phenyl-5-{4-[4-(6-trifluoromethyl-1H-benzimidazol-2-yl)piperidin-1-ylmethyl]-phenyl}-pyrazolo[1,5-a]pyrimidine], the IC50 in assay [1] is 338 nM; in assay [2], over 20000 nM.

For `CC(C)c1nc2nc(-c3ccc(CN4CC(c5n[nH]c(-c6ccccn6)n5)C4)cc3)c(-c3ccccc3)cn2n1` [Example 29.0], the IC50 in assay [1] came to 84 nM; in assay [2], 35 nM.

Turning to `Cc1cccc(-c2nc(C3CCN(Cc4ccc(-c5nc6nc(C7CC7)nn6cc5-c5ccc(F)cc5)cc4)CC3)n[nH]2)n1` [Example 51.0, 2-cyclopropyl-6-(4-fluorophenyl)-5-(4-{4-[5-(6-methylpyridine-2-yl)-1H-[1,2,4]triazole-3-yl]-piperidine-1-ylmethyl}-phenyl)-[1,2,4]triazolo[1,5-a]pyrimidine], the results for the IC50 in assay [1] and in assay [2] were 41 nM and 46 nM, respectively.

`c1ccc(-c2cn3nccc3nc2-c2ccc(CN3CCC(c4nc5cccnc5[nH]4)CC3)cc2)cc1` [Example 16.0, 2-{1-[4-(6-phenyl-pyrazolo[1,5-a]pyrimidin-5-yl)-benzyl]-piperidin-4-yl}-3H-imidazo[4,5-b]pyridine]: the IC50 in assay [1] was determined as 42 nM; in assay [2] it was 1080 nM.

Consider `Cc1nc2nc(-c3ccc(CN4CCC(c5n[nH]c(-c6cnccn6)n5)CC4)cc3)c(-c3ccc(F)cc3F)cn2n1` [Example 50.2, 6-(2,4-difluorophenyl)-2-methyl-5-[4-{4-(5-pyrazine-2-yl-1H-[1,2,4]triazole-3-yl)-piperidine-1-ylmethyl]-phenyl}-[1,2,4]triazolo[1,5-a]pyrimidine], for which the results for the IC50 in assay [1] and in assay [2] were 355 nM and 1100 nM, respectively.
